Assay results from a melting point compilation (Tetko et al.; mined from patent text by program, amines drawn as free bases though some values may be those of a salt).

Point of comparison: CC(=O)OC1CSC(Oc2cncc(Cl)c2)C(OC(C)=O)C1OC(C)=O (configuration not stated), melting point 160 °C. Against it:
- CCc1ccc2ncc(-c3nnn[nH]3)c(=O)n2c1 — higher, 289 to 290 °C
- CCCCn1c(=O)c2c(cnn2S(=O)(=O)CCC)n(CCCC)c1=O — lower, 44 to 48 °C
- COCCOCCOc1cc(N)c(C#N)cc1[N+](=O)[O-] — lower, 106 to 108 °C
- COCC(C)Oc1ccc(CSc2cnn(C(C)(C)C)c(=O)c2Cl)cc1 (configuration not stated) — lower, 51 to 52 °C
- CC(=O)Nc1nc2c(Oc3cc(-c4ccc(C(F)(F)F)cc4NC(=O)C4CCCCN4CC(C)C)ncn3)cccc2s1 (configuration not stated) — lower, 153 to 155 °C
- COC(=O)COc1ccsc1-c1nsc2ccc(-n3c(=O)cc(C(F)(F)F)n(C)c3=O)cc12 — lower, 73 to 79 °C
- CC1CC(=O)NN=C1c1ccc(NC2=CC(=O)CC2)cc1 (configuration not stated) — higher, > 300 °C
- Cc1[nH]c(C(=O)NCc2ccc3c(c2)OCO3)c(C)c1-c1nc2ccc(C(=O)c3ccccc3)cc2[nH]1 — higher, 165 to 167 °C
- O=C1c2c(-c3ccccc3)noc2CCC1CCCN1CCC(n2c(=O)[nH]c3ccccc32)CC1 (configuration not stated) — higher, 212 to 218 °C
- O=C(Cc1ccccc1)NCCc1ccccc1 — lower, 91 to 92 °C
- COC(=O)[C@H](O)[C@@H](NS(=O)(=O)c1c2ccccc2cc2ccccc12)c1ccccc1 — lower, 98 to 102 °C
- Cc1cc(SC#N)c(C(C)(C)C)cc1O — lower, 99 to 102 °C
- CCCn1c(CCO)nc2c(N)nc3cc(OCCCNC(=O)c4cccnc4)ccc3c21 — higher, 184 °C
- CCN(CC)c1cc(C)c2ncc(C#N)c(O)c2c1 — higher, > 250 °C
- C=Cc1ccc2nnn(OS(C)(=O)=O)c2c1 — lower, 129 to 130 °C
- Cc1nc2c(cc1C(=O)NC(=N)N)CCCCC2COS(=O)(=O)O (configuration not stated) — higher, 231 to 233 °C
- CCOC(=O)c1c([N+](=O)[O-])ccc(OC)c1OC — lower, 70 to 72 °C
- Cc1ccc(S(=O)(=O)CNCC(CS(=O)(=O)c2ccccc2Oc2ccc(OC(F)(F)F)cc2)N(O)C=O)cc1 (configuration not stated) — higher, 161 to 162 °C
- Cc1ccc2cccc(OCc3c(Cl)ccc([N+](=O)[O-])c3C#N)c2n1 — higher, 212 to 215 °C
- CCCn1c(=O)c2[nH]c(/C=C/c3ccc4c(c3)OCCO4)nc2n(CCC)c1=O — higher, > 275 °C
- Cc1cn(C2=CCC(O)CC2)c(=O)[nH]c1=O (racemic) — higher, 223 °C
- Cc1nc(N2CCN(Cc3ccccc3)C2=O)sc1C(=O)NCc1ccc(F)cc1 — lower, 147 to 148 °C
- CC(=O)n1cc(C2=CCN(CCCN3c4cccc5cccc(c45)S3(=O)=O)CC2)c2ccccc21 — higher, 163 °C
- O=C1Nc2ccccc2C2=NC(CBr)CN12 (configuration not stated) — higher, 213 to 214 °C
- CC(C)n1c(C=O)c(-c2ccc(F)cc2)c(-c2ccccc2)c1C(=O)NCCc1cccnc1 — higher, 192 to 194 °C
- CN1CCN(c2cc3ncc(C#N)c(Nc4ccc(F)c(Cl)c4)c3cc2[N+](=O)[O-])CC1 — higher, 240 to 246 °C
- CCOC(=O)c1ccc(-c2cccc(O)c2)c(C(C)(C)C)c1 — lower, 118 to 120 °C
- CC(=O)c1cc(NC(=O)NCCCN(CCCNC(=O)Nc2cc(C(C)=O)cc(C(C)=O)c2)CCCNC(=O)Nc2cc(C(C)=O)cc(C(C)=O)c2)cc(C(C)=O)c1 — lower, 147 to 148 °C
- CC(C)(O)CC(=O)N[C@H]1CC[C@H](CCN2CCN(c3nccc4c3OCC4)CC2)CC1 — lower, 139 °C
- O=S(CCCCCOc1ccc(C2=C(c3ccc(O)cc3)CCCc3cc(O)ccc32)cc1)CCCC(F)(F)C(F)(F)F (configuration not stated) — higher, 165 to 168 °C
- COC(=O)c1ccc2c(c1)NC(=O)C(C)O2 (configuration not stated) — lower, 156 to 159 °C
- CCN(C(=O)Cn1c(=O)n(C)c2nc(-c3ccccc3)ncc21)c1ccc(O)cc1 — higher, 254 to 256 °C
- CC(=O)NC[C@H]1CN(c2cc(F)c(N3CCC(n4nnc(N5CCN(C(C)=O)CC5)n4)CC3)c(F)c2)C(=O)O1 — higher, 200 to 205 °C
- O=C(c1ccc(Br)cc1)N1CC(=O)N(CCc2ccccc2)C(=O)C1 — lower, 110 to 112 °C
- COC(=O)COc1ccc(O)c(C(C)(C)C)c1 — lower, 87 to 89 °C
- Cc1nn(-c2cc(O)c(Cl)cc2F)c(=O)n1C(F)F — lower, 147 to 152 °C
